We go through 1 compound from paper PMC5980259, “GI‐530159, a novel, selective, mechanosensitive two‐pore‐domain potassium (K2P) channel opener, reduces rat dorsal root ganglion neuron excitability” (British Journal of Pharmacology, 2017).

Several values for one entry are separate records, joined by “and”; a condition that tells them apart may be missing. Equal entries are not always repeated.

For orientation: EC50 means the midpoint of the concentration-response curve.

The target in one data set is Kv11.1 (hERG) (Homo sapiens, UniProt Q12809). The note with it: 10 μM.
Chain of Kv11.1 (hERG) (Q12809 whole entry): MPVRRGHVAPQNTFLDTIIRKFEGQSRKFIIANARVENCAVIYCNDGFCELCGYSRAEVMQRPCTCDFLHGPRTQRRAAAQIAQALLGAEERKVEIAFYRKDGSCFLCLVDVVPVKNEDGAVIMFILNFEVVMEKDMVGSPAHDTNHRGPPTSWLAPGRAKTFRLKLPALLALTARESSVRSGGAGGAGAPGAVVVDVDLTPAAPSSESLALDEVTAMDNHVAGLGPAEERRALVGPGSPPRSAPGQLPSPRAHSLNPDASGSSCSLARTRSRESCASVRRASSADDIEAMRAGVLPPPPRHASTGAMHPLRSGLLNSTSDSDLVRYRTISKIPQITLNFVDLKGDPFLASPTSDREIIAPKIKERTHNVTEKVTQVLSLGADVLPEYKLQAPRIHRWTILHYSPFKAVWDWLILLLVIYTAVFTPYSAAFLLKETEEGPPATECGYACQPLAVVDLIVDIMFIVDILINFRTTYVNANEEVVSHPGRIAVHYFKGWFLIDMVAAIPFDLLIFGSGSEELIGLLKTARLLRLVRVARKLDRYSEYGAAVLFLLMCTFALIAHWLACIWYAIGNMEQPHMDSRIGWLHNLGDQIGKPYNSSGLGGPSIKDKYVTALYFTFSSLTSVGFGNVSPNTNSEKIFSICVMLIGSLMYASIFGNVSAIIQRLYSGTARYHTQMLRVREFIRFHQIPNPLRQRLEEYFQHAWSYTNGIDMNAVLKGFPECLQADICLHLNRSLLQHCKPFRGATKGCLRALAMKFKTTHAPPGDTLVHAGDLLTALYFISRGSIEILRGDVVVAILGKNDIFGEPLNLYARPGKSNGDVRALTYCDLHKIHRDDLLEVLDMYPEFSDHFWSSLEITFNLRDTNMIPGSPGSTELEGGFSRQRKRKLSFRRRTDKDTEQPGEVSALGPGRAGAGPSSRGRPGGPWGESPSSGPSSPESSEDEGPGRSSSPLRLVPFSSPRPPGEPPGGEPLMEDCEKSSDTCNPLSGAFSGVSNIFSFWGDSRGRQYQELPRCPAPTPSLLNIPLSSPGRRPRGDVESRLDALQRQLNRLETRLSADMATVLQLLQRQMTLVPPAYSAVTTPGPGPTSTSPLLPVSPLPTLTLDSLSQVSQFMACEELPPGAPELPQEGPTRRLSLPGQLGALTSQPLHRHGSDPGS
Another data set deals with T1, hTREK2 (Homo sapiens, UniProt P57789).
T1 construct: expressed in transfected cells; host or cells: tsA-201, transient, pcDNA3.1 vector
T1 sequence (P57789 whole entry): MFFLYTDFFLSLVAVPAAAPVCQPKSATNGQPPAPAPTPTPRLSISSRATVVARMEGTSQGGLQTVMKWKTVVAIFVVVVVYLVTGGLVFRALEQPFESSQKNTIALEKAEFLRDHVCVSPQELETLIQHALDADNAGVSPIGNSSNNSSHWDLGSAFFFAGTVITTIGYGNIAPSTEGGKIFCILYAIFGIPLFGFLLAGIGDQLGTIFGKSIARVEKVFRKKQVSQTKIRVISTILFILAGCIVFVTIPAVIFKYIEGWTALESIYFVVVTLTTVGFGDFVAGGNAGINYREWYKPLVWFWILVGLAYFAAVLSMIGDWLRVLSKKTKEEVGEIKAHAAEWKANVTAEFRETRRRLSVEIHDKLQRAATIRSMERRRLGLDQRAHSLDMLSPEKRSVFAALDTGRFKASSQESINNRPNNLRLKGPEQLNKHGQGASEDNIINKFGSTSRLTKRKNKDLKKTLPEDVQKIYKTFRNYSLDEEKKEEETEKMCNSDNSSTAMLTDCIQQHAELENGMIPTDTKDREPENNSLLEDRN
In words: Whole-cell patch clamp, transiently transfected tsA-201 cells, TREK2. In kind it is cell-based. To be noted: 1 μM, n = 6. On the procedure:
Recordings of hTREK1, hTREK1∆N, hTREK2, hTRAAK and […] currents from transiently transfected tsA‐201 cells were performed using methods as described in Veale and Mathie (2016). Briefly, the pcDNA3.1 vector was cloned with the gene of interest, and these vectors and a similar vector containing GFP were incorporated into the tsA201 cells (0.5 μg per well) using the calcium phosphate method. The cells were incubated for 6–12 h at 37°C in […] and 5% carbon dioxide. Cells were then washed using a PBS solution and used for experiments after 24 h.
Currents were recorded using whole‐cell patch‐clamp using an Axopatch 1D amplifier. Cells were placed in a recording chamber filled with an external medium composed of 145 mM, NaCl, 2.5 mM KCl, 3 mM MgCl2, 1 mM CaCl2 and 10 mM HEPES (pH to 7.4, using NaOH). The internal medium used in the glass pipette comprised 150 mM KCl, 3 mM MgCl2, 5 mM (or 0.1 mM) EGTA and 10 mM HEPES (pH to 7.4, using KOH). GI‐530159 was applied by bath perfusion. Currents were recorded and analysed using pCLAMP 10.2 software Microsoft Excel. The voltage protocol used for recording current through K2P channels was as previously described (Veale and Mathie, 2016). For analysis, we measured the current difference between the −80 and −40 mV steps.

For the next data set, the target named is T2, hTREK1 (Homo sapiens, UniProt O95069).
T2 sequence (O95069 1-426): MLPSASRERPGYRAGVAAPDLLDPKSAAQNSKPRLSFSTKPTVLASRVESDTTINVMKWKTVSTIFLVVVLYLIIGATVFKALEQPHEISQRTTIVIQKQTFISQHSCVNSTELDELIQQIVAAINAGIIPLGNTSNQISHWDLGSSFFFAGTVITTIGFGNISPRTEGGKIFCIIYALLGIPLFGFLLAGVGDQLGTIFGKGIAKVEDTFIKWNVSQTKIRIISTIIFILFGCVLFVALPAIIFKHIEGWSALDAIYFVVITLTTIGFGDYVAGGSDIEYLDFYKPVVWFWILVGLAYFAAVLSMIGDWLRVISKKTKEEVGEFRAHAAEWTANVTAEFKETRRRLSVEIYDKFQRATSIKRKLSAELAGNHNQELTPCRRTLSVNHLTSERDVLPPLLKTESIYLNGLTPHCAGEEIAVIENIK
In words: Manual whole-cell patch clamp, HEK293 cells stably expressing TREK1. Type of data set: cell-based. Details: expressed in transfected cells. On the procedure:
Electrophysiological studies were performed on CHO or HEK293 cells, stably expressing human recombinant TREK1; tsA‐201 cells transiently transfected with human recombinant K2P channels and acutely dissociated rat DRG cells, all at room temperature (22–24°C).
Studies were performed using a conventional patch clamp and Multiclamp 700B and pCLAMP software (Molecular Devices, Sunnyvale, CA, USA). For conventional manual patch clamp, glass coverslips containing HEK293 cells were perfused with an extracellular solution (ECS) containing (in mM): 135 NaCl, 4.7 KCl, 1 CaCl2, 1 MgCl2, 10 HEPES and 10 glucose, pH 7.4, with NaOH (310 mOsmol·L^−1). The patch pipette was filled with (in mM): 130 KCl, 1 MgCl2, 5 MgATP, 10 HEPES and 10 BAPTA, pH adjusted to 7.3 with KOH (290 mOsmol·L^−1).
(In patch-clamp work, channel activity is measured electrically.)

The target in another data set is KCa1.1 (BK) (Homo sapiens, UniProt Q12791). In words: Manual patch clamp in recombinant cell lines, BK. Type of data set: cell-based. To be noted: 10 μM; n = 4.
Chain of KCa1.1 (BK) (Q12791 whole entry, species assumed): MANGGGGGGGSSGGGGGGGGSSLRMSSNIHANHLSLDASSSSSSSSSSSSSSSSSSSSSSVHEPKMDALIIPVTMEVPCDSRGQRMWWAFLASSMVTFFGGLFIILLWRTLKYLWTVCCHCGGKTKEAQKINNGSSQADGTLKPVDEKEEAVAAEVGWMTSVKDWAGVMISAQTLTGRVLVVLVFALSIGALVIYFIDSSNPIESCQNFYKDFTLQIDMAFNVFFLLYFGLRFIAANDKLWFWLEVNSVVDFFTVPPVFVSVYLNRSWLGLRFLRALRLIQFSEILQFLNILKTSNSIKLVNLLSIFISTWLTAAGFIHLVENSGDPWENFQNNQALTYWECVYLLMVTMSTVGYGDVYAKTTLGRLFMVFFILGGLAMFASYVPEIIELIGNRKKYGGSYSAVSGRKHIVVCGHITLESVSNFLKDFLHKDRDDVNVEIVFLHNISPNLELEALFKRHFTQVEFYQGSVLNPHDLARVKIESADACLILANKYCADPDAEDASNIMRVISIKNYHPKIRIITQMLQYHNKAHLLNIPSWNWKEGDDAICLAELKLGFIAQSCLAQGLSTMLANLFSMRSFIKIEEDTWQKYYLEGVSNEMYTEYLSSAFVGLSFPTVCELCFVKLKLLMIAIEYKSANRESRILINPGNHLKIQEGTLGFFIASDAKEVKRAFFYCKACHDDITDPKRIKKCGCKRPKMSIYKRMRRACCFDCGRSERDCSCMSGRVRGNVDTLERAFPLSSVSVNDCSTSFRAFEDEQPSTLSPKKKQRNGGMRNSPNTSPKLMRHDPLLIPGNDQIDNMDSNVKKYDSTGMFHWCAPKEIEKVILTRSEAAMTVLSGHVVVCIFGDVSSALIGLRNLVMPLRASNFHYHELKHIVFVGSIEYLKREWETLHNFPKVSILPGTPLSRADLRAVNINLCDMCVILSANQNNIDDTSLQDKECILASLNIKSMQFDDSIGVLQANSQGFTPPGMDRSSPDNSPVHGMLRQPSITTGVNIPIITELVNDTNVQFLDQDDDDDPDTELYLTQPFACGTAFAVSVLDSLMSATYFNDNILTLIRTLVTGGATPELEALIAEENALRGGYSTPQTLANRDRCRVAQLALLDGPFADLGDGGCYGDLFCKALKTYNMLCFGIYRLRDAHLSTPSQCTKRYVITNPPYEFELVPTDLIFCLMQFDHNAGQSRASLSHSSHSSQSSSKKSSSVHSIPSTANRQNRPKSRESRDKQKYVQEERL
A further data set relates to small rat DRG neurons. Briefly: Current-clamp recordings from small rat DRG neurones in short-term culture. The note with it: 1 μM. Type of data set: cell-based. As to the method: Acutely dissociated rat DRG cells were obtained according to a previously described protocol (Passmore, 2005). All animal care and experimental procedures complied with guidelines and were approved by the Pfizer Neusentis Institutional Animal Use and Care Committee. Animal studies are reported in compliance with the ARRIVE guidelines (Kilkenny et al., 2010; McGrath and Lilley, 2015).Cells were plated on coated coverslips (poly‐D‐lysine/laminin, BD Biosciences, San Jose, CA, USA) prior to patching on the same day. Cells were perfused with an extracellular solution containing (in mM): 135 NaCl, 4.7 KCl, 1 CaCl2, 1 MgCl2, 10 HEPES and 10 glucose, pH 7.4, with NaOH (310 mOsmol·L^−1). Pipette solution contained (in mM): 130 KCl, 1 MgCl2, 5 MgATP, 10 HEPES and 5 EGTA, pH adjusted to 7.3 with KOH (290 mOsmol·L^−1). For whole‐cell recordings, currents were filtered at 2 kHz and sampled at 5 kHz. Series resistance was compensated for by up to 80%. For current‐clamp recordings, action potential firing and resting membrane potential (RMP) were recorded from small cells ([…]). GI‐530159 was dissolved in 0.3% DMSO as 10 mM stock and applied in the vicinity of cells using a gravity fed perfusion system (MSC‐200, Bio‐Logic SAS, Claix, France).

[1] abbreviates: 15 pA depolarizing current injection, of the 14 cells tested.

As to `Nc1ccc(Oc2ccc(C(c3ccc(Oc4ccc(N)cc4)cc3)(C(F)(F)F)C(F)(F)F)cc2)cc1` [GI‐530159, 4,4′‐(hexafluoroisopropylidene)bis(p‐phenyleneoxy)dianiline], at Kv11.1 (hERG), the “effect on Kv11.1 (hERG) current” value is −7.3 ± 5.1%. Besides, the “enhancement of TREK2 current” value on hTREK2 is on record as 42 ± 6%. For the same compound, the “TREK1 current measured at 0 mV” value at hTREK1 (1 μM, HEK293, 116 ± 15 pA in presence of DMSO, n = 6, P < 0.05) is listed as 4090 ± 878 pA. Besides, the “activated current, TREK1 channels” value on hTREK1 (1 μM, n = 6) is 4.0 ± 0.9 nA. The “reversal potential of compound-enhanced current” value on hTREK1 (1 μM, voltage ramp −100 to +80 mV) was about −80 mV. The “enhanced current at maximal activation” value at hTREK1 (30 μM, measured at 0 mV, n = 5) is on record as 6.6 ± 0.9 nA. Also, the EC50 at hTREK1 (HEK293, 0.1 to 30 μM, measured at 0 mV, read-out: EC50 for TREK1 current enhancement) is 890 nM and 900 nM. The “effect on KCa1.1 (BK) current” value at KCa1.1 (BK) is listed as −3.3 ± 6.7%. For the same compound, in the data set on small rat DRG neurons (14 cells tested), the “share of cells with firing frequency reduced or abolished” value came out at 57% and the “share of neurons with firing unaltered / unaffected” value is on record as 43%. Further, in the data set with small rat DRG neurons (setting [1]), the “cells with a reduction in firing frequency” value was “two”, the “cells with complete abolition in firing frequency” value is “six” and the “neurons with firing unaltered” value is on record as “six”. In addition, the “resting membrane potential after application, averaged per rat” value in the data set with small rat DRG neurons (n = 7 rats, from −54.0 ± 2.0 mV, P < 0.05) is reported as −57.8 ± 1.4 mV. In addition, the “resting membrane potential after application” value in the data set on small rat DRG neurons (n = 14 individual neurons, from −53.6 ± 1.5 mV, P < 0.05) is −57.1 ± 1.5 mV.
